Values of other authors in patent US9491955B2, “Balanced myristate- and laurate-containing edible oil” (Brandeis University, priority 2008, dated 2016).

Test system: rats
Conditions: trimyristin component of a blend with peanut oil

Compound: CCCCCCCCCCCCCC(=O)OCC(COC(=O)CCCCCCCCCCCCC)OC(=O)CCCCCCCCCCCCC [trimyristin]
- Decrease of cholesterol-raising capacity by interesterification with GNO: 34%
